The structures appear in SMILES notation. Several values for one entry are separate records, joined by “and”; a condition that tells them apart may be missing. Equal entries are not always repeated. Records with an inconclusive call do not appear.

Consider 13 molecules from PubChem BioAssay AID212 (DTP/NCI, 2004).

For the assay, the system named is BDF1 mice, colon carcinoma 38 sc, T/C %. Description: NCI In Vivo Anticancer Drug Screen. Data for tumor model Colon Carcinoma 38 (subcutaneous) in B6D2F1 (BDF1) mice. To be noted: endpoint: median tumor weight (est.), higher = larger tumour. Put shortly: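 T/C readout: treated group (T) measurement over vehicle control group (C) measurement. Endpoint is survival or tumor size in mice bearing a transplanted tumor.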

The mark [1] stands for this setting: dose: 12.5 mg/kg/injection, schedule: Q07DX002 (ip), vehicle: saline with Tween-80.
Where [2] appears, read: dose: 25.0 mg/kg/injection, schedule: Q07DX002 (ip), vehicle: saline with Tween-80.
[3] abbreviates: dose: 50.0 mg/kg/injection, schedule: Q07DX002 (ip), vehicle: saline with Tween-80.
The mark [4] stands for this setting: dose: 100.0 mg/kg/injection, schedule: Q07DX002 (ip), vehicle: saline with Tween-80.
Setting [5] is: dose: 200.0 mg/kg/injection, schedule: Q07DX002 (ip), vehicle: saline with Tween-80.
Setting [6] is: dose: 400.0 mg/kg/injection, schedule: Q07DX002 (ip), vehicle: saline with Tween-80.
Where [7] appears, read: dose: 25.0 mg/kg/injection, schedule: Q07DX002 (ip), vehicle: Klucel (hydroxypropylcellulose) (HPC).
Where [8] appears, read: dose: 100.0 mg/kg/injection, schedule: Q07DX002 (ip), vehicle: Klucel (hydroxypropylcellulose) (HPC).
The mark [9] stands for this setting: dose: 6.25 mg/kg/injection, schedule: Q07DX002 (ip), vehicle: saline.
[10] abbreviates: dose: 12.5 mg/kg/injection, schedule: Q07DX002 (ip), vehicle: saline.

In the case of `CC1OC(=O)C(C(C)C)NC(=O)C(C(C)C)OC(=O)C(C(C)C)NC(=O)C(C)OC(=O)C(C(C)C)NC(=O)C(C(C)C)OC(=O)C(C(C)C)NC(=O)C(C)OC(=O)C(C(C)C)NC(=O)C(C(C)C)OC(=O)C(C(C)C)NC1=O` (centres undefined), the T/C is 71 % of control and 90 % of control (dose: 2.5 mg/kg/injection, schedule: Q07DX003 (ip), vehicle: saline with Tween-80); 79 % of control (dose: 5.0 mg/kg/injection, schedule: Q07DX003 (ip), vehicle: saline with Tween-80); 37 % of control (dose: 40.0 mg/kg/injection, schedule: Q07DX003 (ip), vehicle: saline with Tween-80).

As for `Nc1cccc(=O)[nH]1`, the T/C (dose: 25.0 mg/kg/injection, schedule: Q07DX002 (ip), vehicle: suspension in saline) is 116 % of control; the T/C (dose: 50.0 mg/kg/injection, schedule: Q07DX002 (ip), vehicle: saline) is 92 % of control; the T/C (dose: 50.0 mg/kg/injection, schedule: Q07DX002 (ip), vehicle: suspension in saline) was 66 % of control; the T/C (dose: 100.0 mg/kg/injection, schedule: Q07DX002 (ip), vehicle: saline) was 113 % of control; the T/C (dose: 100.0 mg/kg/injection, schedule: Q07DX002 (ip), vehicle: suspension in saline) was 87 % of control; the T/C (dose: 200.0 mg/kg/injection, schedule: Q07DX002 (ip), vehicle: saline) is 94 % of control. Further, the T/C was 77 % of control (dose: 200.0 mg/kg/injection, schedule: Q07DX002 (ip), vehicle: suspension in saline); 91 % of control (dose: 400.0 mg/kg/injection, schedule: Q07DX002 (ip), vehicle: saline); 74 % of control (dose: 400.0 mg/kg/injection, schedule: Q07DX002 (ip), vehicle: suspension in saline); 95 % of control (dose: 800.0 mg/kg/injection, schedule: Q07DX002 (ip), vehicle: saline).

As for `CN(C)CCOc1ccc2c(c1)C/C(=C/c1ncc([N+](=O)[O-])n1C)C2=O`, the T/C runs as follows: under setting [1], 76 % of control; under setting [2], 94 % of control; under setting [3], 106 % of control; under setting [4], 91 % of control; under setting [5], 106 % of control; under setting [6], 50 % of control.

As to `N/C(=N\OC(=O)Nc1ccc(CSc2ccc(Cl)cc2)o1)c1ccccn1`, the T/C under setting [7] is 89 % of control; the T/C (dose: 50.0 mg/kg/injection, schedule: Q07DX002 (ip), vehicle: Klucel (hydroxypropylcellulose) (HPC)) is 75 % of control; the T/C under setting [8] was 90 % of control.

Regarding `CC(C)CC(NC(=O)C(O)C(N)Cc1ccccc1)C(=O)O` (centres undefined), the T/C by setting is: (dose: 10.0 micrograms/mouse/injection, schedule: Q10HX006 (ip), vehicle: saline) 85 % of control; (dose: 10.0 micrograms/mouse/injection, schedule: Q10HX010 (oral), vehicle: saline) 74 % of control; (dose: 100.0 micrograms/mouse/injection, schedule: Q10HX006 (ip), vehicle: saline) 50 % of control; (dose: 100.0 micrograms/mouse/injection, schedule: Q10HX010 (oral), vehicle: saline) 62 % of control.

For `[Cl][Sn]([c]1ccccc1)[c]1ccccc1`, the T/C runs as follows: under setting [9], 113 % of control; under setting [10], 108 % of control; (dose: 12.5 mg/kg/injection, schedule: Q09DX002 (ip), vehicle: saline) 95 % of control; (dose: 25.0 mg/kg/injection, schedule: Q07DX002 (ip), vehicle: saline) 89 % of control; (dose: 25.0 mg/kg/injection, schedule: Q09DX002 (ip), vehicle: saline) 93 % of control.

For `Cc1cc(O)c(N=Nc2ccc(C(=O)O)cc2)cc1C`, the T/C is 108 % of control under setting [2]; 104 % of control under setting [3]; 100 % of control under setting [4]; 55 % of control under setting [5]; 84 % of control under setting [6].

`O=S(=O)(O)O.[NH-]C1CCCCC1[NH-].[Pt+2]` (centres undefined): the T/C was 56 % of control (dose: 0.31 mg/kg/injection, schedule: Q07DX002 (ip), vehicle: dextrose); 82 % of control (dose: 0.62 mg/kg/injection, schedule: Q07DX002 (ip), vehicle: dextrose); 80 % of control (dose: 0.63 mg/kg/injection, schedule: Q07DX002 (ip), vehicle: dextrose); 51 % of control (dose: 0.63 mg/kg/injection, schedule: Q07DX003 (ip), vehicle: dextrose); 41 % of control (dose: 1.25 mg/kg/injection, schedule: Q07DX002 (ip), vehicle: dextrose); 76 % of control (dose: 1.25 mg/kg/injection, schedule: Q07DX003 (ip), vehicle: dextrose). Moreover, the T/C by setting is: (dose: 2.5 mg/kg/injection, schedule: Q07DX002 (ip), vehicle: dextrose) 19 % of control and 36 % of control; (dose: 5.0 mg/kg/injection, schedule: Q07DX002 (ip), vehicle: dextrose) 21 % of control; (dose: 5.0 mg/kg/injection, schedule: Q07DX003 (ip), vehicle: dextrose) 29 % of control; (dose: 10.0 mg/kg/injection, schedule: Q07DX002 (ip), vehicle: dextrose) 9 % of control.

For `CC[C@@]1(O)C(=O)OCc2c1cc1n(c2=O)Cc2cc3ccccc3nc2-1`, the T/C (dose: 1.5 mg/kg/injection, schedule: Q07DX002 (ip), vehicle: saline with Tween-80) is 100 % of control; the T/C (dose: 3.0 mg/kg/injection, schedule: Q07DX002 (ip), vehicle: saline with Tween-80) was 92 % of control; the T/C (dose: 6.0 mg/kg/injection, schedule: Q07DX002 (ip), vehicle: saline with Tween-80) was 75 % of control; the T/C (dose: 12.0 mg/kg/injection, schedule: Q07DX002 (ip), vehicle: saline with Tween-80) is 90 % of control; the T/C (dose: 24.0 mg/kg/injection, schedule: Q07DX002 (ip), vehicle: saline with Tween-80) is 95 % of control.

Take `COc1cccc2c1C(=O)c1c(O)c3c(c(O)c1C2=O)CC(O)(/C(C)=N/NC(=O)CCCCC(=O)N/N=C(\C)C1(O)Cc2c(O)c4c(c(O)c2C(OC2CC(N)C(O)C(C)O2)C1)C(=O)c1c(OC)cccc1C4=O)CC3OC1CC(N)C(O)C(C)O1` (centres undefined): the T/C is, setting by setting: under setting [9], 46 % of control; (dose: 6.25 mg/kg/injection, schedule: Q07DX002 (ip), vehicle: water) 68 % of control; under setting [10], 32 % of control; (dose: 12.5 mg/kg/injection, schedule: Q07DX002 (ip), vehicle: water) 21 % of control.

Turning to `C=CS(C=C)=NS(=O)(=O)c1ccc(C)cc1`, the T/C was 110 % of control (dose: 1.56 mg/kg/injection, schedule: Q07DX002 (ip), vehicle: Klucel (hydroxypropylcellulose) (HPC)); 110 % of control (dose: 6.25 mg/kg/injection, schedule: Q07DX002 (ip), vehicle: Klucel (hydroxypropylcellulose) (HPC)); 111 % of control (dose: 12.5 mg/kg/injection, schedule: Q07DX002 (ip), vehicle: Klucel (hydroxypropylcellulose) (HPC)); 94 % of control under setting [7].

Take `C[CH2][Ge]([CH2]C)[CH2]C.C[CH2][Ge]([CH2]C)[CH2]C.C[CH2][Ge]([CH2]C)[O][Ge]([CH2]C)[CH2]C`: the T/C reads like this: under setting [1], 80 % of control; under setting [2], 90 % of control; under setting [3], 87 % of control; under setting [4], 68 % of control; under setting [5], 81 % of control and 95 % of control; (dose: 800.0 mg/kg/injection, schedule: Q07DX002 (ip), vehicle: saline with Tween-80) 90 % of control.

With `Cc1ccc(S(=O)(=O)OCOS(=O)(=O)c2ccc(C)cc2)cc1`, the T/C is, setting by setting: under setting [8], 61 % of control; (dose: 200.0 mg/kg/injection, schedule: Q07DX002 (ip), vehicle: Klucel (hydroxypropylcellulose) (HPC)) 104 % of control; (dose: 400.0 mg/kg/injection, schedule: Q07DX002 (ip), vehicle: Klucel (hydroxypropylcellulose) (HPC)) 80 % of control and 93 % of control; (dose: 1600.0 mg/kg/injection, schedule: Q07DX002 (ip), vehicle: Klucel (hydroxypropylcellulose) (HPC)) 19 % of control and 27 % of control.
